Assay results taken from article PMC8786250, “Comparison of chemical profiles, antioxidation, inhibition of skin extracellular matrix degradation, and anti-tyrosinase activity between mycelium and fruiting body of Cordyceps militaris and Isaria tenuipes” (Pharmaceutical Biology, 2022).
≈ marks a conversion by molar mass, not a printed value.

Assays:
[1] = target: T1, metalloproteinase-1 (MMP-1) from Clostridium histolyticum (ChC); assay: spectrophotometric MMP-1 (collagenase) inhibition assay; type: biochemical, Hathewaya histolytica; settings: substrate FALGPA; positive control
T1 construct: gene colG; native collagenase preparation (Sigma-Aldrich)
From the text: spectrophotometric MMP-1 (collagenase) inhibition assay on metalloproteinase-1 (MMP-1) from Clostridium histolyticum (ChC)

[2] = target: T2, elastase from porcine pancreas (Sus scrofa, UniProt P00772); assay: spectrophotometric elastase inhibition assay; type: biochemical; settings: read-out: IC50 (mg/mL) / Elastase inhibition (converted)
T2 construct: gene CELA1; native enzyme from pancreas, lyophilised powder (Sigma-Aldrich); mature form
From the text: spectrophotometric elastase inhibition assay on elastase from porcine pancreas

T2 sequence (P00772 27-266): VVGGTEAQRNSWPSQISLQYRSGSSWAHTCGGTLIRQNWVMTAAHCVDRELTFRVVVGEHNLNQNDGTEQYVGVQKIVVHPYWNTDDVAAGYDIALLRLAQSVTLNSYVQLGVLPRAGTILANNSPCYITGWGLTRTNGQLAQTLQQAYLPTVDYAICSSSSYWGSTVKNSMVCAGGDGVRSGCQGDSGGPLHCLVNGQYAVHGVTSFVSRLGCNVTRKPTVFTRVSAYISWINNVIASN

Structure (SMILES)	IC50 (mg/mL) / MMP-1 inhibition [1] [mg/mL]	IC50 [2] [nM]
CC1(C)CC[C@]2(C(=O)O)CC[C@]3(C)C(=CC[C@@H]4[C@@]5(C)CC[C@H](O)C(C)(C)[C@@H]5CC[C@]43C)[C@@H]2C1 [OA, oleanolic acid]	0.002 ± 0.000 (≈ 4.38 µM)	–
O=C(O[C@@H]1Cc2c(O)cc(O)cc2O[C@@H]1c1cc(O)c(O)c(O)c1)c1cc(O)c(O)c(O)c1 [EGCG, epigallocatechin gallate]	–	2180
